The target in series [1] is Cyclin-dependent kinase 2/cyclin A (Homo sapiens, UniProt P24941). The series is described as follows: Inhibitory activity against CDK2/Cyclin A. Format: protein-complex assay.
A further series concerns the target T1, Aurora kinase A (Homo sapiens, UniProt O14965).
T1 sequence (O14965 whole entry): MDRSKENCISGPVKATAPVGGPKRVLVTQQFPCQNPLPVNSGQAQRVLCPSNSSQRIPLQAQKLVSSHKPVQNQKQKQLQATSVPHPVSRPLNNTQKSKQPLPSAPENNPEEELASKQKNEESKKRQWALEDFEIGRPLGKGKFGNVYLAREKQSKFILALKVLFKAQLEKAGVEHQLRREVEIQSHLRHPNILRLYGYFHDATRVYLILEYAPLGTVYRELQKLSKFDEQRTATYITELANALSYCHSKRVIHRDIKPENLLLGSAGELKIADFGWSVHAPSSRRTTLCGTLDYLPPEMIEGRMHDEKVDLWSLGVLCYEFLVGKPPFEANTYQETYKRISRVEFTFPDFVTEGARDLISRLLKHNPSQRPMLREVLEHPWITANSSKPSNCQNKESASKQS
Briefly: Inhibitory activity against Aurora A kinase.

In a further series the test system is A2780. Briefly: Antiproliferative activity against A2780 cells. The format is functional, cell-based. To be noted: Homo sapiens.
Series [2] has as its target Cyclin-dependent kinase 4/cyclin D1 (Homo sapiens, UniProt P11802). The series is described as follows: Inhibitory activity against CDK4/Cyclin D1. The format is protein-complex assay.
For series [3], the target named is Cyclin-dependent kinase 5/CDK5 activator 1 (Homo sapiens, UniProt Q00535). Briefly: Inhibitory activity against CDK5/p25. Format: protein-complex assay.
The nature of series [4]: Plasma protein binding. To be noted: human, read-out: PPB (converted). The format is ADME, cell-free.
In series [5] the target is Cyclin-dependent kinase 1/cyclin B (Homo sapiens, UniProt P06493). Briefly: Inhibitory activity against CDK1/Cyclin B. Format: protein-complex assay.
The next series has as its system HCT-116. Briefly: Antiproliferative activity against HCT116 cells. Format: functional, cell-based. To be noted: Homo sapiens.
A further series has as its target Cytochrome P450 3A4 (Homo sapiens, UniProt P08684). Briefly: Metabolic stability in presence of CYP3A4. Format: ADME.
Series [6] addresses Glycogen synthase kinase-3 beta (Homo sapiens, UniProt P49841). The series is described as follows: Inhibitory activity against GSK3-beta.
In series [7] the test system is HT-29. Briefly: Incorporation of BrdU in HT29 cells. Format: functional, cell-based. To be noted: Homo sapiens.
The nature of series [8]: Solubility in buffer. Format: physicochemical.
For series [9], the system named is HT-29. The series is described as follows: Cell cycle arrest in HT29 cells by accumulation at G1/S phase. To be noted: Homo sapiens. The format is functional, cell-based.
In series [10] the target is T2, Cyclin-dependent kinase 2/cyclin A (Homo sapiens) (UniProt P24941+P20248+P78396). The series is described as follows: Inhibition of hyperphosphorylation of pRb by CDK2/cyclin A at 3 uM. Format: functional.
The target in series [11] is Cyclin-dependent kinase 2/cyclin E (Homo sapiens, UniProt P24941). Briefly: Inhibitory activity against CDK2/Cyclin E. The format is protein-complex assay.
For series [12], the target named is Mitogen-activated protein kinase 1 (Homo sapiens, UniProt P28482). Briefly: Inhibitory activity against p42MAPK.
Series [13] deals with HT-29. Briefly: Antiproliferative activity against HT29 cells. The format is functional, cell-based. To be noted: Homo sapiens.
Series [14] addresses T2, Cyclin-dependent kinase 2/cyclin A (Homo sapiens). Briefly: Inhibition of hyperphosphorylation of pRb by CDK2/cyclin A at 1 uM. The format is functional.

≈ marks a conversion by molar mass, not a printed value. Calls of active or inactive are those of the source. The calls are words filed in the database; no cut-off is given here.

For orientation: IC50 means the concentration that inhibits the measured activity by half. The term solubility denotes the concentration that dissolves in the medium under given conditions. A higher solubility goes with much dissolved substance.

Chain of Cyclin-dependent kinase 4/cyclin D1 (P11802 whole entry): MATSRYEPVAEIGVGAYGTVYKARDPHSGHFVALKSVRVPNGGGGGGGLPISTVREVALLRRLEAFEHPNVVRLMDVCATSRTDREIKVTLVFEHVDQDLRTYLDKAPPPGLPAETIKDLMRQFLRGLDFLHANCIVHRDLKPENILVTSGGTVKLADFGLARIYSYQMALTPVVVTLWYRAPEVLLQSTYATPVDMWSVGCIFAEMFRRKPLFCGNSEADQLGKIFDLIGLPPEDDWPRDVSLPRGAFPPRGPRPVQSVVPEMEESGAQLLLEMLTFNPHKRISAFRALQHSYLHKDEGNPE
Chain of Cyclin-dependent kinase 4/cyclin D1 (P24385 whole entry, further chain): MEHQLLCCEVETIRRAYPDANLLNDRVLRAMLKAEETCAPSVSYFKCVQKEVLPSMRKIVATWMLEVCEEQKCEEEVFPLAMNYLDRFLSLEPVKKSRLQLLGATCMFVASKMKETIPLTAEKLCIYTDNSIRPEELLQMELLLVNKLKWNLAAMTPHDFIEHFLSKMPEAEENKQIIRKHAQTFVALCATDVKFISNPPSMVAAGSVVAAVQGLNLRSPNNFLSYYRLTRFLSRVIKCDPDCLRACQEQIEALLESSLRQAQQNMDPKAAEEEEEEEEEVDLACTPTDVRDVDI
Chain of Cytochrome P450 3A4 (P08684 whole entry): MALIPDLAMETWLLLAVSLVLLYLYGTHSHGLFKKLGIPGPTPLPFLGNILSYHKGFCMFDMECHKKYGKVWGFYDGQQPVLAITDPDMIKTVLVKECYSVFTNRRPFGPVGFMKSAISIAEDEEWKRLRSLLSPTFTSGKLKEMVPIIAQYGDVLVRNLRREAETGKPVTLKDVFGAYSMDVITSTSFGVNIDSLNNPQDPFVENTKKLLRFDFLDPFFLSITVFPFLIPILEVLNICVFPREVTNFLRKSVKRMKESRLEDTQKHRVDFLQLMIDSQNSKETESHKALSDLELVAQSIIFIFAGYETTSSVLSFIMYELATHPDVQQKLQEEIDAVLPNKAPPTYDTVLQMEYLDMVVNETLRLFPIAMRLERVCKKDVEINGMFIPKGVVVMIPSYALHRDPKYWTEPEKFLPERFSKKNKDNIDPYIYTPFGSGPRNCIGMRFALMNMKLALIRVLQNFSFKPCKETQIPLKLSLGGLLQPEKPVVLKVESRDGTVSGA
Chain of Mitogen-activated protein kinase 1 (P28482 whole entry): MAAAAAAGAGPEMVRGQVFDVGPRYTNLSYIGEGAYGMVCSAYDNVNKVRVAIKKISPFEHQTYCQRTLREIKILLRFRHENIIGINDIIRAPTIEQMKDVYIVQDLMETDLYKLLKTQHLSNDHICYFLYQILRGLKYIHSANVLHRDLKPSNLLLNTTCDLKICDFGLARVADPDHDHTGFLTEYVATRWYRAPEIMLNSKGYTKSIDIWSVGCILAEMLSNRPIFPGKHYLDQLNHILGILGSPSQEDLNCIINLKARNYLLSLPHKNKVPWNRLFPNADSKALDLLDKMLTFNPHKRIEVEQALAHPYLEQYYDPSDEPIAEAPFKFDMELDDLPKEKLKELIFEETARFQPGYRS
Chain of Glycogen synthase kinase-3 beta (P49841 whole entry): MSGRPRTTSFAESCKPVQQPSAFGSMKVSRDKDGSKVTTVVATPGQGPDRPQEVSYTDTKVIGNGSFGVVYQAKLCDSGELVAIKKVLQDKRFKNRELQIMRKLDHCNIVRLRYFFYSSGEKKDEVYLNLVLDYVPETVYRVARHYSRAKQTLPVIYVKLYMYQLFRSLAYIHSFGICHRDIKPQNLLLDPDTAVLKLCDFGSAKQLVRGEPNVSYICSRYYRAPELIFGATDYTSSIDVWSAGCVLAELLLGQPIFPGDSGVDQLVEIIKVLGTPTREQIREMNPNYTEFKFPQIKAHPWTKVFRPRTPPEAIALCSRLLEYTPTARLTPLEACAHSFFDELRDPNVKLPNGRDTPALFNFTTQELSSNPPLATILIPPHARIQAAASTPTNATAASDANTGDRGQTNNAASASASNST
Chain of Cyclin-dependent kinase 5/CDK5 activator 1 (Q00535 whole entry): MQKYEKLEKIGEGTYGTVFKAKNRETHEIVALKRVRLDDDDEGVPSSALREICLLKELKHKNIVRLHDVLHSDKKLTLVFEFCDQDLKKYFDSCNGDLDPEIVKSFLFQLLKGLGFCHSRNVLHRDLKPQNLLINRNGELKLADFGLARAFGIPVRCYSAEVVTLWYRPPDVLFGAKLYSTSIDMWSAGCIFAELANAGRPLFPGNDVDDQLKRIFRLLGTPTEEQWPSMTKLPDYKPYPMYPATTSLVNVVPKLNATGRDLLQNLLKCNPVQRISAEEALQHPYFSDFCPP
Chain of Cyclin-dependent kinase 5/CDK5 activator 1 (Q15078 whole entry, further chain): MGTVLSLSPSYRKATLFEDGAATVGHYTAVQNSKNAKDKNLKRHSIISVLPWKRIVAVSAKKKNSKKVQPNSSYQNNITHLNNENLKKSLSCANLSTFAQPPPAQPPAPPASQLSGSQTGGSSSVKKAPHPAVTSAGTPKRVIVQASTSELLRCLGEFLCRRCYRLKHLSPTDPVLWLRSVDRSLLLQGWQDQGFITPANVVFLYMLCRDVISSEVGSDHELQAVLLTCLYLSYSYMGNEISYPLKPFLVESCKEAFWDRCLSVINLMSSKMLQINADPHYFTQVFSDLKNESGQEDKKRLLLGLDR

With `CC(=O)N1Cc2n[nH]c(NC(=O)c3ccc(F)cc3)c2C1`, the IC50 in series [1] is 2.54 µM; at Aurora kinase A, greater than 10 µM.

`CCCCNC(=O)N1Cc2n[nH]c(NC(=O)Cc3ccc4ccccc4c3)c2C1`: the IC50 in [1] was 0.045 µM; in the series with A2780, 0.54 µM; on Aurora kinase A, greater than 10 µM.

For the compound `O=C(Cc1ccccc1)Nc1[nH]nc2c1CN(C(=O)Nc1ccccc1)C2`, the IC50 in series [1] was 0.73 µM; on Aurora kinase A, greater than 10 µM.

On to `CC(=O)N1Cc2n[nH]c(NC(=O)c3ccc(C)cc3)c2C1`, for which the IC50 in series [1] is 1.08 µM; on Aurora kinase A, 2.14 µM.

With `CC(C)NC(=O)N1Cc2n[nH]c(NC(=O)c3ccc4c(c3)OCO4)c2C1`, the IC50 in series [1] amounted to 0.12 µM; against Aurora kinase A, 0.39 µM.

On to `CC(=O)N1Cc2n[nH]c(NC(=O)Cc3ccccc3)c2C1`, for which the IC50 stood at 0.44 µM in series [1] and 2.31 µM at Aurora kinase A.

For `CC(=O)N1Cc2n[nH]c(NC(=O)c3ccc4c(c3)OCO4)c2C1`, the IC50 in series [1] was 2.76 µM; against Aurora kinase A, greater than 10 µM.

For the compound `CC(C)C(=O)N1Cc2n[nH]c(NC(=O)c3ccc4c(c3)OCO4)c2C1`, the IC50 in series [1] came out at 0.43 µM; at Aurora kinase A, 0.16 µM.

Consider `CC(=O)N1Cc2n[nH]c(NC(=O)c3ccc(C#N)cc3)c2C1`, for which the figures for the concentration for half-maximal inhibition (IC50) (in series [1]; on Aurora kinase A) were 1.59 µM and 8.5 µM, respectively.

Take `Cc1ccc(C(=O)Nc2[nH]nc3c2CN(C(=O)c2cccc4cccnc24)C3)cc1`: the IC50 in [1] stood at 1.05 µM; at Aurora kinase A it was 0.44 µM.

Turning to `CCCCNC(=O)N1Cc2n[nH]c(NC(=O)Cc3ccccc3F)c2C1`, the figures for the IC50 (in series [1]; against Aurora kinase A) were 0.051 µM and greater than 10 µM, respectively.

For the compound `CCCCNC(=O)N1Cc2n[nH]c(NC(=O)[C@@H](C)c3ccc4ccccc4c3)c2C1`, the IC50 is greater than 10 µM in series [2]; 0.036 µM in series [1]; 0.15 µM in series [3]; 0.75 µM in series [5]; 0.13 µM in the series with A2780; 0.12 µM with HCT-116. In addition, the IC50 in series [6] is 0.05 µM; in series [11], 0.09 µM; in series [12], 0.38 µM; against Aurora kinase A it was greater than 10 µM; in the series on HT-29 [13], 0.07 µM. In addition, the fraction unbound in series [4] was 0.01. Besides, the Stability at Cytochrome P450 3A4 is reported as 20%. Also, in the series on HT-29 [7], the result was inactive. For the same compound, the concentration in solution in series [8] (solubility) was 27 µM (≈ 10.9 µg/mL). Also, the outcome (in the series with HT-29 [9]; in [10]) was Active.

As to `CC(=O)N1Cc2n[nH]c(NC(=O)c3cccc(F)c3)c2C1`, the IC50 in series [1] was determined as 2.11 µM; at Aurora kinase A it was 4.85 µM.

On to `CC(=O)N1Cc2n[nH]c(NC(=O)c3ccccc3)c2C1`, for which the figures for the IC50 (in series [1]; at Aurora kinase A) were 1.15 µM and 3.11 µM, respectively.

`NC(=O)N1Cc2n[nH]c(NC(=O)Cc3ccccc3)c2C1`: the IC50 was 0.03 µM in series [1] and greater than 10 µM against Aurora kinase A.

With `COc1ccc(C(=O)Nc2[nH]nc3c2CN(C(C)=O)C3)cc1`, the IC50 was determined as 1.37 µM in series [1] and 0.66 µM against Aurora kinase A.

Take `CCCCNC(=O)N1Cc2n[nH]c(NC(=O)Cc3ccc(N4CCCC4=O)cc3)c2C1`: the IC50 was 0.051 µM in [1], 8.27 µM with A2780 and greater than 10 µM against Aurora kinase A.

With `CCCCNC(=O)N1Cc2n[nH]c(NC(=O)Cc3ccc(N4CCCC4)cc3)c2C1`, the IC50 in [2] is greater than 10 µM; in series [1], 0.033 µM; in series [5] it was 0.4 µM; in the series with A2780, 0.94 µM; with HCT-116 it was 0.9 µM; in [6], 0.3 µM. Also, the IC50 was 0.091 µM in series [11], 0.28 µM in series [12], 4.2 µM against Aurora kinase A and 0.2 µM in the series with HT-29 [13]. Moreover, in series [4], the fraction unbound was 0.05. Besides, the Stability at Cytochrome P450 3A4 came out at 100%. For the same compound, the result with HT-29 [7] was inactive. This compound also returned a solubility in series [8] of 39 µM (≈ 16 µg/mL). The result (with HT-29 [9]; in [14]) was Active.

These data come from ChEMBL document CHEMBL1148615, “3-Amino-1,4,5,6-tetrahydropyrrolo[3,4-c]pyrazoles: a new class of CDK2 inhibitors” (Bioorg Med Chem Lett, 2006).
